Measured values published in ChEMBL document CHEMBL4229478, “Synthesis, Characterization, and Biological Evaluation of a Porphyrin-Based Photosensitizer and Its Isomer for Effective Photodynamic Therapy against Breast Cancer” (J Med Chem, 2018).
The source made the active and inactive calls. The rule behind the calls is not given here.

How the values were obtained:
[1] = Selectivity index, ratio of dark toxicity against human MDA-MB-231 cells at 5 uM to phototoxicity against human MDA-MB-231 cells at 5 uM; type: cell-based; conditions: read-out: Selectivity Index
[2] = Induction of singlet oxygen generation in cell free condition upon 635 nm semiconductor laser light irradiation by singlet oxygen sensor green dye based fluorescence spectrophotometeric analysis; type: functional
[3] = Drug uptake in lung of BALB/c mouse xenografted with mouse 4T1 cells at 10 mg/kg, iv measured at 12 hrs post injection by IVIS spectrum imaging; type: ADME, organism-based; conditions: in vivo
[4] = Dark toxicity against mouse 4T1 cells assessed as cell viability at 5 uM after 24 hrs by MTT assay; type: cell-based; conditions: 4t1, 24 h
4T1 [5] = assay: Induction of apoptosis in mouse 4T1 cells xenografted in BALB/c mouse at 4 mg/kg, iv pretreated for 24 hrs followed by 50 J/cm2 light irradiation by TUNEL assay; type: functional, organism-based
Mus musculus [6] = assay: Nephrotoxicity in BALB/c mouse xenografted with mouse 4T1 cells assessed as pathological changes in kidney at 4 mg/kg, iv pre-tretaed for 24 hrs followed by 50 J/cm2 light irradiation and measured at day 22 post dose by hematoxylin and eosin staining based light microscopic analysis; type: toxicity, organism-based; conditions: in vivo
[7] = Induction of apoptosis in human MDA-MB-231 cells assessed as viable cells after 24 hrs by Annexin-V FITC/propidium iodide staining based flow cytometric analysis (reference value: 93.27%); type: cell-based; conditions: read-out: Activity
Mus musculus [8] = assay: Hepatotoxicity in BALB/c mouse xenografted with mouse 4T1 cells assessed as pathological changes in liver at 4 mg/kg, iv pre-tretaed for 24 hrs followed by 50 J/cm2 light irradiation and measured at day 22 post dose by hematoxylin and eosin staining based light microscopic analysis; type: toxicity, organism-based; conditions: in vivo
[9] = Selectivity index, ratio of dark toxicity against human MCF7 at 5 uM cells to phototoxicity against human MCF7 cells at 5 uM; type: cell-based; conditions: read-out: Selectivity Index
[10] = Dark toxicity against human MCF7 cells assessed as cell viability at 5 uM after 24 hrs by MTT assay; type: cell-based; conditions: mcf7, 24 h
[11] = Drug uptake in human MDA-MB-231 cells at 5 to 10 uM after 4 hrs by fluorescence microscopic analysis; type: ADME, cell-based; conditions: mda-mb-231, 4 h
[12] = Drug uptake in heart of BALB/c mouse xenografted with mouse 4T1 cells at 10 mg/kg, iv measured at 12 hrs post injection by IVIS spectrum imaging; type: ADME, organism-based; conditions: in vivo
MDA-MB-231 [13] = assay: Induction of apoptosis in human MDA-MB-231 cells assessed as necrotic cells after 24 hrs upon light irradiation by Annexin-V FITC/propidium iodide staining based flow cytometric analysis (reference value: 4.24%); type: functional
Mus musculus [14] = assay: Toxicity in BALB/c mouse xenografted with mouse 4T1 cells assessed as effect on body weight at 4 mg/kg, iv pre-tretaed for 24 hrs followed by 50 J/cm2 light irradiation and measured at day 22 post dose; type: organism-based; conditions: in vivo
MDA-MB-231 [15] = assay: Induction of ROS generation in human MDA-MB-231 cells incubated with DCF-DA probe for 30 mins followed by 2 J/cm2 light irradiation and measured after 1 hr by flow cytometric analysis (reference value: 4.38%); type: functional
MDA-MB-231 [16] = assay: Induction of apoptosis in human MDA-MB-231 cells assessed as viable cells after 24 hrs upon light irradiation by Annexin-V FITC/propidium iodide staining based flow cytometric analysis (reference value: 93.27%); type: functional
4T1 [17] = assay: Antitumor activity against mouse 4T1 cells xenografted in BALB/c mouse assessed as tumor growth inhibition at 4 mg/kg, iv pretreated for 24 hrs followed by 50 J/cm2 light irradiation and measured at day 22 post last dose; type: functional, organism-based
[18] = Drug uptake in tumor of BALB/c mouse xenografted with mouse 4T1 cells at 10 mg/kg, iv measured up to 3 to 24 hrs post injection by fluorescence assay; type: ADME, organism-based, Neoplasm; conditions: in vivo
MDA-MB-231 [19] = assay: Induction of apoptosis in human MDA-MB-231 cells assessed as early apoptotic cells after 24 hrs by Annexin-V FITC/propidium iodide staining based flow cytometric analysis (reference value: 1.22%); type: cell-based; conditions: mda-mb-231, 24 h
[20] = Tmax in tumor of BALB/c mouse xenografted with mouse 4T1 cells at 10 mg/kg, iv measured after […] by fluorescence assay; type: ADME, organism-based, Neoplasm
Mus musculus [21] = assay: Toxicity in BALB/c mouse xenografted with mouse 4T1 cells assessed as pathological changes in lung at 4 mg/kg, iv pre-tretaed for 24 hrs followed by 50 J/cm2 light irradiation and measured at day 22 post dose by hematoxylin and eosin staining based light microscopic analysis; type: organism-based; conditions: in vivo
Mus musculus [22] = assay: Toxicity in BALB/c mouse xenografted with mouse 4T1 cells assessed as pathological changes in spleen at 4 mg/kg, iv pre-tretaed for 24 hrs followed by 50 J/cm2 light irradiation and measured at day 22 post dose by hematoxylin and eosin staining based light microscopic analysis; type: organism-based; conditions: in vivo
[23] = Selectivity index, ratio of dark toxicity against mouse 4T1 cells at 5 uM to phototoxicity against mouse 4T1 cells at 5 uM; type: cell-based; conditions: read-out: Selectivity Index
MDA-MB-231 [24] = assay: Induction of ROS generation in human MDA-MB-231 cells incubated with DCF-DA probe for 30 mins by flow cytometric analysis (reference value: 4.38%); type: cell-based; conditions: mda-mb-231, 0.5 h
[25] = Drug uptake in mitochondria of human MDA-MB-231 cells after 4 hrs by Mito tracker green-based confocal laser scanning microscopic analysis; type: ADME; conditions: mda-mb-231, 4 h
MDA-MB-231 [26] = assay: Induction of apoptosis in human MDA-MB-231 cells assessed as late apoptotic cells after 24 hrs upon light irradiation by Annexin-V FITC/propidium iodide staining based flow cytometric analysis (reference value: 1.28%); type: functional
MDA-MB-231 [27] = assay: Induction of apoptosis in human MDA-MB-231 cells assessed as late apoptotic cells after 24 hrs by Annexin-V FITC/propidium iodide staining based flow cytometric analysis (reference value: 1.28%); type: cell-based; conditions: mda-mb-231, 24 h
MCF7 = assay: Phototoxicity against human MCF7 cells assessed as cell viability at 5 uM preincubated for 4 hrs followed by 0.5 to 2 J/cm2 light irradiation and measured after 24 hrs by MTT assay; type: functional, cell-based
[28] = Drug uptake in human MDA-MB-231 cells up to 10 uM after 4 hrs by flow cytometric analysis; type: ADME, cell-based; conditions: mda-mb-231, 4 h
MDA-MB-231 [29] = assay: Induction of apoptosis in human MDA-MB-231 cells assessed as necrotic cells after 24 hrs by Annexin-V FITC/propidium iodide staining based flow cytometric analysis (reference value: 4.24%); type: cell-based; conditions: mda-mb-231, 24 h
MDA-MB-231 [30] = assay: Induction of apoptosis in human MDA-MB-231 cells assessed as early apoptotic cells after 24 hrs upon light irradiation by Annexin-V FITC/propidium iodide staining based flow cytometric analysis (reference value: 1.22%); type: functional
[31] = Drug uptake in kidney of BALB/c mouse xenografted with mouse 4T1 cells at 10 mg/kg, iv measured at 12 hrs post injection by IVIS spectrum imaging; type: ADME, organism-based; conditions: in vivo
Mus musculus [32] = assay: Toxicity in BALB/c mouse xenografted with mouse 4T1 cells assessed as effect on body weight at 4 mg/kg, iv measured at day 22 post last dose; type: organism-based; conditions: in vivo
[33] = Drug uptake in tumor of BALB/c mouse xenografted with mouse 4T1 cells at 10 mg/kg, iv measured at 12 hrs post injection by IVIS spectrum imaging; type: ADME, organism-based, Neoplasm; conditions: in vivo
4T1 [34] = assay: Phototoxicity against mouse 4T1 cells assessed as cell viability at 5 uM preincubated for 4 hrs followed by 0.5 to 2 J/cm2 light irradiation and measured after 24 hrs by MTT assay; type: functional, cell-based
MDA-MB-231 [35] = assay: Induction of ROS generation in human MDA-MB-231 cells incubated with DCF-DA probe for 30 mins prior to ROS scavenger NAC addition 1 hr before 2 J/cm2 light irradiation and measured after 1 hr post irradiation by flow cytometric analysis; type: functional, cell-based
[36] = Dark toxicity against human MDA-MB-231 cells assessed as cell viability at 5 uM after 24 hrs by MTT assay; type: cell-based; conditions: mda-mb-231, 24 h
MDA-MB-231 [37] = assay: Phototoxicity against human MDA-MB-231 cells assessed as cell viability at 5 uM preincubated for 4 hrs followed by 0.5 to 2 J/cm2 light irradiation and measured after 24 hrs by MTT assay; type: functional, cell-based
[38] = Drug uptake in spleen of BALB/c mouse xenografted with mouse 4T1 cells at 10 mg/kg, iv measured at 12 hrs post injection by IVIS spectrum imaging; type: ADME, organism-based; conditions: in vivo

- Drug uptake [3]: Not Active
- Drug uptake [11]: Not Active
- Drug uptake [12]: Not Active
- Drug uptake [18]: Active
- Tmax [20]: 12 h
- Activity (MDA-MB-231 [24]): 5.7%
- Drug uptake [25]: Active
- Drug uptake [28]: Not Active
- Drug uptake [31]: Not Active
- Drug uptake [33]: Active
- Drug uptake [38]: Not Active
Compound: COC(C)C1=C(C)c2cc3[nH]c(cc4nc(cc5[nH]c(cc1n2)c(C)c5CCC(=O)O)C(CCC(=O)O)=C4C)c(C)c3C(C)O (centres undefined)
- selectivity ratio at 5 µM [1]: 18.8
- Activity [2]: Dose-dependent effect
- Activity [4]: Non-Toxic
- Activity (4T1 [5]): Active
- Activity (Mus musculus [6]): Non-Toxic
- viability at 24 h [7]: 92.2%
- Activity (Mus musculus [8]): Non-Toxic
- selectivity ratio at 5 µM [9]: 16.8
- Activity [10]: Non-Toxic
- Activity (MDA-MB-231 [13]): 6.83%
- Activity (Mus musculus [14]): Non-Toxic
- Activity (MDA-MB-231 [15]): 25.13%
- Activity (MDA-MB-231 [16]): 58.77%
- TGI (4T1 [17]): inactive
- Activity (MDA-MB-231 [19]): 1.99%
- Activity (Mus musculus [21]): Non-Toxic
- Activity (Mus musculus [22]): Non-Toxic
- selectivity ratio at 5 µM [23]: 12
- Activity (MDA-MB-231 [26]): 30.5%
- Activity (MDA-MB-231 [27]): 1.76%
- Activity (MCF7): Active
- Activity (MDA-MB-231 [29]): 4.02%
- Activity (MDA-MB-231 [30]): 3.91%
- Activity (Mus musculus [32]): Non-Toxic
- Activity (4T1 [34]): Active
- Activity (MDA-MB-231 [35]): inactive
- Activity [36]: Non-Toxic
- Activity (MDA-MB-231 [37]): Active
